Results from patent US20230069886A1, “AROMATIC SULPHONAMIDES DERIVATIVES THAT INHIBITS PDI A3, THEIR SYNTHESIS AND USE” (Uniwersytet Jagiellonski, priority 2020, published 2023).
Converted amounts (≈) assume the structure as drawn.

Experiments:
[1] = tested on: HT-29; experiment: MTT antiproliferative assay, 72 h, HT-29; assay type: cell-based, human; conditions: 72 hours exposition
Protocol: Anticancer activity of selected compounds of invention, PDI A3-inhibitors has been also tested in vitro in antiproliferative assay in normoxic and hypoxic conditions as well in estrogen-stimulated cancer cells. In the experiment, cells were seeded on 96-well plates (Sarstedt, Germany) in appropriate culture medium at a density of 10^5 cells/mL 24 h before adding the tested compounds. Cells were treated with each compound in four concentrations in the range 0.1-100 μg/mL. […] After 72 h of compound treatment at 37° C., 5% CO2 humid atmosphere and in wo different oxygen level conditions: 21%—normal and <1%—hypoxia. In some experiments the MDA-MB-231 and MCF-7 cells were seeded with or without 200 nM estradiol and after 24 h the tested compounds were added. […] Briefly, cells were fixed with 50 μL/well of 50% (w/v) trichloroacetic acid (Avantor Performance Materials, Gliwice, Poland). After 1 h incubation, plates were washed several times with tap water and 50 μL of 0.4% (w/v) solution of sulforhodamine B (Sigma-Aldrich, Germany) in 1% (v/v) acetic acid (Avantor Performance Materials, Gliwice, Poland) was added to each well. After 30 min incubation at room temperature, unbound dye was washed out with 1% (v/v) acetic acid, whereas bound dye was solubilized with 10 mM unbuffered TRIS (Avantor Performance Materials, Gliwice, Poland) solution. The entire procedure was performed using a BioTek EL-406 washing station (BioTek Instruments, USA). After additional 30 min, absorbance was read using a Biotek Hybrid H4 reader (BioTek Instruments, USA) at 540 nm wavelength. […] Absorbance was measured using a Biotek Hybrid H4 reader at 570 nm wavelength for MTT assay.
Compounds at each concentration were tested in triplicate in a single experiment and each experiment was repeated at least three times independently. Results are presented as mean IC50±SD.

[2] = molecular target: T1, PDI A3 (Homo sapiens, UniProt P30101); experiment: PDI A3 inhibition, insulin turbidimetric assay; assay type: biochemical; conditions: 10 ug/ml PDI A3, incubated 60 min at 37° C., turbidity at 650 nm; read-out: Inhibition of PDI A3 (EC 50)
T1 construct: purchased Mybiosource; host or cells: E. coli
T1 sequence (P30101 25-505): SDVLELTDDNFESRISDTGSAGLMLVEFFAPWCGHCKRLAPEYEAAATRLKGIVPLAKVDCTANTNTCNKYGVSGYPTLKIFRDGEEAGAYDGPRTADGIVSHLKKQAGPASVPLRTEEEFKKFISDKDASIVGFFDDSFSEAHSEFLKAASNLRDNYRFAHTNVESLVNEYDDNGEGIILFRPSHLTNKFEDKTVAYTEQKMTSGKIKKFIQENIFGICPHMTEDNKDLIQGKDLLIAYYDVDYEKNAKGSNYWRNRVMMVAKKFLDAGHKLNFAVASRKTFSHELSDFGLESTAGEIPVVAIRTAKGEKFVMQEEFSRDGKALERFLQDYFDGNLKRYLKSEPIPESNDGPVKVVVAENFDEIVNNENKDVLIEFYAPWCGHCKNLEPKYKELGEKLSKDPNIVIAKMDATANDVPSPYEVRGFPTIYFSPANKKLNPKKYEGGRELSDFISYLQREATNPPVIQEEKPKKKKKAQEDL
Procedure, shortened: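 Recombinant E. coli-expressed PDIA3 (10 ug/ml) was preincubated with compound for 60 min at 37° C in 0.1 mM phosphate buffer pH 7.6, 1 mM EDTA, 0.087 mM DTT. Reaction was started with insulin (0.15 mM final) and DTT (0.174 mM final). Insulin reduction was followed as turbidity at 650 nm over 120-s recordings, against reference samples without PDI.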

[3] = tested on: human platelets; experiment: Light transmission aggregometry of collagen-stimulated human platelet-rich plasma; assay type: cell-based; conditions: human PRP, FIG. 2, 3
Protocol: Anti-platelet activity of compounds of invention was assessed using light transmission aggregometry assay of human platelet-rich plasma (PRP). Venous blood was obtained from male volunteers at the University Hospital Blood Bank Centre. Volunteer donors had not taken any medicines for the preceding two weeks. Blood was collected into vials containing sodium citrate (3.2%, 9:1 v/v) as an anti-coagulant agent. To obtain platelet rich plasma (PRP), blood was centrifuged at 260×g for 15 min. The platelet […] plasma fraction (used as a blank sample) was obtained by centrifugation of the remaining blood for 10 min at 2600×g. Aggregation of blood platelets was assessed in PRP with a dual channel Chronolog aggregometer (CHRONO-LOG) using a method previously described by Born^35. PRP (500 μl) was equilibrated for 2 min at 37° C. with a continuous stirring at 800 rpm and then stimulated with collagen to cause aggregation. At the beginning of each experiment, concentrations of collagen that induced sub-maximum aggregation response were determined. These concentrations were in the range of […], respectively. All the tested compounds were added 2 min prior to stimulation of platelets with collagen. Transmittance was read 6 min after stimulation of platelets with an agonist. […]

COC(=O)C1CN1S(=O)(=O)c1ccc2c(C=O)c(N(C)C)ccc2c1 (stereo not drawn) [Compound C-3390, Methyl 1-[[6-(dimethylamino)-5-formyl-2-naphthyl]sulfonyl]aziridine-2-calboxylate]
IC50 [μg/ml] HT-29 normal [1]: 33.6 ± 2.9 µg/mL (≈ 92.7 µM)
EC50 [2]: 4 µM
Inhibition of platelet aggregation [3]: lowest EC50
